Values of other authors, collected in US11220503B2, “Phthalazine derivatives, preparation method, pharmaceutical composition and usage thereof” (Shanghai SIMR Biotech Co., Ltd., priority 2015, dated 2022).

Test system: α5-GABAA receptor
Settings: cited from earlier work

SMILES | blocking of the binding of (^3H) R0-15-1788 in brain
Cc1cc(-c2nncc3c(C(C)(C)C)c(OCc4ncnn4C)nn23)no1 [MRK016, 3-tert-butyl-7-(5-methylisoxazol-3-yl)-2-(1-methyl-1H-1,2,4-triazol-5-ylmethoxy) pyrazolo[1,5-d][1,2,4]triazine] | could efficiently block the binding
Cn1ncnc1COc1nn2c(-c3cc(CO)on3)nncc2c1C(C)(C)C [MRK016-M3] | almost no blocking effect
